In patent US20210346357A1 (priority 2020, published 2021):

Tested on: IL-13 induced pSTAT6 in lung tissue
Test: Murine model of IL-13 induced pSTAT6 induction in lung tissue
Format: in vivo
Settings: mouse lung, oral aspiration 1 mg/mL 50 μL, IL-13 challenge at 4 h; scale 0% to 100% inhibitory effect
Text: Assay 3: Murine (Mouse) Model of IL-13 induced pSTAT6 Induction in Lung Tissue
IL-13 is an important cytokine underlying the pathophysiology of asthma (Kudlacz et al. Eur. J. Pharmacol, 2008, 582,154-161). IL-13 binds to cell surface receptors activating members of the Janus family of kinases (JAK) which then phosphorylate STAT6 and subsequently activates further transcription pathways. In the described model, a dose of IL-13 was delivered locally into the lungs of mice to induce the phosphorylation of STAT6 (pSTAT6) which is then measured as the endpoint.
Adult Balb/c mice from Harlan were used in the assay. […] Animals were placed in lateral recumbency post dose and monitored for full recovery from anesthesia before being returned to their home cage. Four hours later, animals were once again briefly anesthetized and challenged with either vehicle or IL-13 (0.03 μg total dose delivered, 50 μL total volume) via oral aspiration before being monitored for recovery from anesthesia and returned to their home cage. […] Plasma and lung levels of test compound were determined by LC-MS analysis against analytical standards constructed into a standard curve in the test matrix. A lung to plasma ratio was determined as the ratio of the lung concentration in ng/g to the plasma concentration in ng/mL at 5 hours. […]

`CCc1cc(O)ccc1-c1ccc2c(-c3nc4c([nH]3)CN(C(C)C)[C@H](C(=O)N3CC(N(C)C)C3)C4)n[nH]c2c1` [Compound 1, (S)-(3-(dimethylamino)azetidin-1-yl)(2-(6-(2-ethyl-4-hydroxyphenyl)-1H-indazol-3-yl)-5-isopropyl-4,5,6,7-tetrahydro-3H-imidazo[4,5-c]pyridin-6-yl)methanone] was tested, and the “pSTAT6 inhibition at 5 hours” value was 75.
